The source of these data is patent US7148034B2, “Bioactive whey protein hydrolysate” (New Zealand Dairy Board, priority 2001, dated 2006).

pIC50: −log10 of the molar value. Ends that are not written are not given here. Peptide text beside a SMILES is read from it.

In general, pIC50 refers to −log10 of the IC50, conventionally taken in molar units. A lower pIC50 goes with a large IC50.

Chain of ACE-I enzyme (P12821 30-1306): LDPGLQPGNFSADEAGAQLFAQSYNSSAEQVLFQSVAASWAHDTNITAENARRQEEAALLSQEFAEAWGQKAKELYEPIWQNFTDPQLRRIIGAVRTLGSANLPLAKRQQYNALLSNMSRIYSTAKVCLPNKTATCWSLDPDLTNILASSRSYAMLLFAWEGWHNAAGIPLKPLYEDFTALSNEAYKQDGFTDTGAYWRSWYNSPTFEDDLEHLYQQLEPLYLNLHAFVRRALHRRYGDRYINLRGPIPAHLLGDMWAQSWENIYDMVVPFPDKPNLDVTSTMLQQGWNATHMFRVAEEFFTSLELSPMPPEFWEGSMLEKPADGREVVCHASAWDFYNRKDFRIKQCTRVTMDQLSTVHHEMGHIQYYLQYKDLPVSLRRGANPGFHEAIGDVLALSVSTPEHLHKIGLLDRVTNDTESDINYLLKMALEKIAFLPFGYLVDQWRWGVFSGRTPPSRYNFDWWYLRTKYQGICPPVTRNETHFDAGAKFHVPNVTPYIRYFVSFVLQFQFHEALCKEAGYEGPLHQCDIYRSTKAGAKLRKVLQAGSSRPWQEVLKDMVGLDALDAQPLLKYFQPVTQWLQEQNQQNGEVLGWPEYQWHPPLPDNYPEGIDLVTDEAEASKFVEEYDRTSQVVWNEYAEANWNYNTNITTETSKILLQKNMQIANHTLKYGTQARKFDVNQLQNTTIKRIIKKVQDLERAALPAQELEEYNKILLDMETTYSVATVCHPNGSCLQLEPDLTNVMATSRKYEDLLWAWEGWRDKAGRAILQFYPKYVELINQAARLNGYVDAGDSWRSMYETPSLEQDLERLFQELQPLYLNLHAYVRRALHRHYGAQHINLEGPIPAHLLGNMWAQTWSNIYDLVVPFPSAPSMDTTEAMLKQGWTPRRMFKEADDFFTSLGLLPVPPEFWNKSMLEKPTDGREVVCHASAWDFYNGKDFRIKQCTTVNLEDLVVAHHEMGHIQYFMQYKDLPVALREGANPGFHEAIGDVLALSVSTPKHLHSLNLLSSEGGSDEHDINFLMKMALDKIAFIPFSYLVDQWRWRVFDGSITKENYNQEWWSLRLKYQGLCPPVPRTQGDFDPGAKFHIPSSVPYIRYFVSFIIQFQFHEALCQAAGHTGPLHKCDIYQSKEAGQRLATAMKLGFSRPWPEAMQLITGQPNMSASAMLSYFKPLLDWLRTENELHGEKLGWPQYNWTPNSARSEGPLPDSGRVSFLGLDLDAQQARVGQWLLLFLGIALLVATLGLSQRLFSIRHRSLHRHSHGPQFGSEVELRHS

For the first assay, the target named is ACE-I enzyme (Homo sapiens, UniProt P12821). In words: ACE-I activity in vitro using FAPGG as substrate. The settings on record: peptides purified by reverse-phase HPLC from 10 kDa UF permeate of Example 1 hydrolysate. The class given is biochemical. As to the method:
ACE-I activity (in vitro) in the dried product was determined using FAPGG as a substrate (Product 305–10 ex Sigma Chemical Corporation, St Louis, Mo., USA) according of the method of D W Cushman & H S Cheung (1971). ACE-I activities are expressed as the amount of material (mg/L) needed to reduce the activity of the ACE-I enzyme by 50%.
Take `C[C@H](NC(=O)[C@@H](N)CO)C(=O)N1CCC[C@H]1C(=O)O` [Peptide 1, SAP] (H-Ser-Ala-Pro-OH; N-terminus and C-terminus assumed): the pIC50 was 4.09. Same read-out and setting: in the case of `CSCC[C@H](N)C(=O)N[C@@H](CCCCN)C(=O)NCC(=O)O` [Peptide 2, MKG] (H-Met-Lys-Gly-OH; N-terminus and C-terminus assumed) it was 4.16; in that of ALPMH [Peptide 3, ALPMH], 4.39; in that of LIVTQ [Peptide 4, LIVTQ], 4.48. On the same count and under the same terms, as for LKGYGGVSLPEW [Peptide 7], the figure is 5.27; as for VSLPEW [Peptide 5, VSLPEW], 4.96.

In the next assay the test system is Spontaneously hypertensive rats (SHRs). In words: Acute short term effect on systolic blood pressure (tail cuff). It counts as in vivo, rat. The settings on record: 165 mg/kg body weight, oral in jelly, p=0.0021 after 4 hours, p<0.0001 after 8 hours. The procedure: Blood pressure was measured using a tail cuff monitor and a purpose designed apparatus for measuring the blood pressure of small animals [IITC Inc, 239 Victory Blvd., Woodland Hills, Calif. 91367, USA]. Each time point was the average of 3–5 readings taken within approximately 5–10 minutes.
Spontaneously hypertensive rats (SHRs) were sourced from the Animal Resource Centre, Western Australia.
The test substances were given to each rat on a per kg body weight basis unless otherwise stated. The individual dose for each animal was incorporated into a flavoured jelly, which was readily consumed by the animals.
The three samples evaluated for short tern blood pressure response were a mildly hydrolysed whey protein concentrate (FIG. 2), a mildly hydrolysed whey protein isolate (see FIG. 3) and a synthesised peptide from. Table 1, namely MKG (SEQ ID NO: 2) (see FIG. 4). The WPC was prepared according to the methodology set out in example 1 of WO 99/65326.
Acute or short term effects of agents were determined by treating adult SHRs with the agent and then studying their blood pressure responses over the following hours. The study detects if an agent lowers blood pressure that is already elevated.
Take `CSCC[C@H](N)C(=O)N[C@@H](CCCCN)C(=O)NCC(=O)O` [Peptide 2, MKG] (H-Met-Lys-Gly-OH; N-terminus and C-terminus assumed): the “Reduction in systolic blood pressure compared to control rats” value is “much greater reduction in blood pressure”.
